Experimental data published in patent US8802597B2, “Herbicidal pyrimidines” (E I du Pont de Nemours and Company, priority 2003, dated 2014).

Tests used:
[1] = tested on: purple redstem (Ammannia coccinea); assay: Test E flooded paddy water application; format: in vivo; conditions: Flood, 21 days, scale 0 to 100 (0 no effect, 100 complete control); for Plant response rating, Redstem: 16 g ai/ha
How it was run: (§1)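 Response scored visually on a 0–100 scale (100 = complete control) at 21 days against untreated pots. Treatment was into paddy water 3 cm deep over silt loam, with plants at the 2.0–2.5-leaf stage, grown under 16-h light at 29.5/26.7 °C day/night.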

[2] = tested on: rice flatsedge (Cyperus iria); assay: Test E flooded paddy water application; format: in vivo; conditions: Flood, 21 days, scale 0 to 100 (0 no effect, 100 complete control); for Plant response rating, Flatsedge, Rice: 16 g ai/ha
How it was run: as §1

[3] = tested on: barnyardgrass (Echinochloa crus-galli); assay: Test C flooded paddy test; format: in vivo; conditions: Flood
Experimental: (§2) At the same time, plants selected from these crop and weed species and also winter barley (Hordeum vulgare), blackgrass (Alopecurus myosuroides), canarygrass (Phalaris minor), chickweed (Stellaria media), downy brome (Bromus tectorum), green foxtail (Setaria viridis), Italian ryegrass (Lolium multiflorum), wheat (Triticum aestivum), wild oat (Avena fatua) and windgrass (Apera spica-venti) were treated with postemergence applications of some of the test chemicals formulated in the same manner. Plants ranged in height from 2 to 18 cm (1- to 4-leaf stage) for postemergence treatments. Plant species in the flooded paddy test consisted of rice (Oryza sativa), umbrella sedge (Cyperus difformis), duck salad (Heteranthera limosa) and barnyardgrass (Echinochloa crus-galli) grown to the 2-leaf stage for testing. Treated plants and controls were maintained in a greenhouse for 12 to 14 days, after which time all species were compared to controls and visually evaluated. Plant response ratings, summarized in Table C, are based on a scale of 0 to 100 where 0 is no effect and 100 is complete control. A dash (-) response means no test result.

[4] = tested on: umbrella sedge (Cyperus difformis); assay: Test C flooded paddy test; format: in vivo; conditions: Flood, scale 0 to 100
Experimental: as §2

[5] = tested on: duck salad (Heteranthera limosa); assay: Test C flooded paddy test; format: in vivo; conditions: Flood, scale 0 to 100
Experimental: as §2

[6] = tested on: rice (Oryza sativa); assay: Test C flooded paddy test; format: in vivo; conditions: Flood, scale 0 to 100
Experimental: as §2

[7] = tested on: Italian ryegrass (Lolium multiflorum); assay: Test C postemergence; format: in vivo; conditions: for Ryegrass, Italian plant response rating: scale 0 to 100 (0 no effect, 100 complete control)
How it was run: (§3)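 Visual injury ratings, 0 (no effect) to 100 (complete control), made 12 to 14 days after treatment by comparison with untreated controls. Greenhouse plants received test chemical in a surfactant-containing non-phytotoxic solvent, either preemergence on planted seeds or postemergence at the 1- to 4-leaf stage.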

[8] = tested on: winter barley (Hordeum vulgare); assay: Test C postemergence; format: in vivo
How it was run: as §3

[9] = tested on: canarygrass (Phalaris minor); assay: Test C postemergence; format: in vivo
How it was run: as §3

[10] = tested on: windgrass (Apera spica-venti); assay: Test C postemergence; format: in vivo; conditions: for Windgrass plant response rating: scale 0 to 100 (0 no effect, 100 complete control)
How it was run: as §3

[11] = tested on: downy brome (Bromus tectorum); assay: Test C postemergence; format: in vivo
How it was run: as §3

[12] = tested on: green foxtail (Setaria viridis); assay: Test C postemergence; format: in vivo; conditions: for Foxtail, Green plant response rating: scale 0 to 100 (0 no effect, 100 complete control)
How it was run: as §3

[13] = tested on: wheat (Triticum aestivum); assay: Test C postemergence; format: in vivo; conditions: for Wheat plant response rating: scale 0 to 100 (0 no effect, 100 complete control)
How it was run: as §3

[14] = tested on: blackgrass (Alopecurus myosuroides); assay: Test C postemergence; format: in vivo
How it was run: as §3

[15] = tested on: wild oat (Avena fatua); assay: Test C postemergence; format: in vivo; conditions: for Oat, Wild plant response rating: scale 0 to 100 (0 no effect, 100 complete control)
How it was run: as §3

[16] = 62 g ai/ha, scale 0 to 100 (0 no effect, 100 complete control)

Compound: Nc1nc(-c2ccc(Br)cc2)nc(C(=O)O)c1Cl [Compound 95, 6-amino-2-(4-bromophenyl)-5-chloro-4-pyrimidinecarboxylic acid]
- Redstem plant response rating ([1]; 64 g ai/ha): 30
- Redstem plant response rating ([1]; 125 g ai/ha): 70
- Redstem plant response rating ([1]; 250 g ai/ha): 80
- Plant response rating, Redstem [1]: 30
- Flatsedge, Rice plant response rating ([2]; 32 g ai/ha): 0
- Flatsedge, Rice plant response rating ([2]; 64 g ai/ha): 0
- Flatsedge, Rice plant response rating ([2]; 125 g ai/ha): 0
- Flatsedge, Rice plant response rating ([2]; 250 g ai/ha): 0
- Plant response rating, Flatsedge, Rice [2]: 0
- melting point: 157 to 158 °C (dec.)

Compound: Nc1nc(C2CC2)nc(C(=O)[O-])c1Br.[Na+] [Compound 113, 6-amino-5-bromo-2-cyclopropyl-4-pyrimidinecarboxylic acid monosodium salt]
- melting point: > 300 °C

Compound: Nc1nc(C2CC2)nc(C(=O)O)c1Br [Compound 8]
- melting point: 160 to 162 °C

Compound: CCOC(=O)c1nc(-c2ccccc2)nc(N)c1Br [Compound 18]
- melting point: 110 to 111 °C

Compound: CCOC(=O)c1nc(-c2ccc(Br)cc2)nc(N)c1Cl [Compound 94, ethyl 6-amino-2-(4-bromophenyl)-5-chloro-4-pyrimidinecarboxylate]
- Redstem plant response rating ([1]; 32 g ai/ha): 65
- Redstem plant response rating ([1]; 64 g ai/ha): 75
- Redstem plant response rating ([1]; 125 g ai/ha): 100
- Redstem plant response rating ([1]; 250 g ai/ha): 100
- Plant response rating, Redstem [1]: 0
- Flatsedge, Rice plant response rating ([2]; 32 g ai/ha): 100
- Flatsedge, Rice plant response rating ([2]; 64 g ai/ha): 100
- Flatsedge, Rice plant response rating ([2]; 125 g ai/ha): 100
- Flatsedge, Rice plant response rating ([2]; 250 g ai/ha): 100
- Plant response rating, Flatsedge, Rice [2]: 100
- melting point: 136 to 137 °C

Compound: Nc1nc(C2CC2)nc(CO)c1Br [Compound 21]
- melting point: 182 to 185 °C

Compound: CCOC(=O)c1nc(C(C)(C)C)nc(N)c1Br [Compound 36]
- melting point: 69 to 70 °C

Compound: COC(=O)c1nc(C2CC2)nc(N=CN(C)C)c1Br [Compound 19]
- Plant response rating, Barnyardgrass ([3]; 62 g ai/ha, scale 0 to 100): 0
- Plant response rating, Barnyardgrass ([3]; 125 g ai/ha, scale 0 to 100): 0
- Plant response rating, Barnyardgrass ([3]; 250 g ai/ha, scale 0 to 100): 0
- Plant response rating, Barnyardgrass ([3]; 500 g ai/ha, scale 0 to 100 (0 no effect, 100 complete control)): 60
- Plant response rating, Sedge, Umbrella ([4]; 62 g ai/ha): 20
- Plant response rating, Sedge, Umbrella ([4]; 125 g ai/ha): 50
- Plant response rating, Sedge, Umbrella ([4]; 250 g ai/ha): 50
- Plant response rating, Sedge, Umbrella ([4]; 500 g ai/ha): 50
- Plant response rating, Ducksalad ([5]; 62 g ai/ha): 20
- Plant response rating, Ducksalad ([5]; 125 g ai/ha): 40
- Plant response rating, Ducksalad ([5]; 250 g ai/ha): 60
- Plant response rating, Ducksalad ([5]; 500 g ai/ha): 60
- Plant response rating, Rice ([6]; 62 g ai/ha): 0
- Plant response rating, Rice ([6]; 125 g ai/ha): 0
- Plant response rating, Rice ([6]; 250 g ai/ha): 10
- Plant response rating, Rice ([6]; 500 g ai/ha): 20
- Plant response rating (scale of 0 to 100), Ryegrass, Italian ([7]; 16 g ai/ha): 65
- Plant response rating (scale of 0 to 100), Ryegrass, Italian ([7]; 31 g ai/ha): 65
- Ryegrass, Italian plant response rating ([7]; 62 g ai/ha): 65
- Ryegrass, Italian plant response rating ([7]; 125 g ai/ha): 70
- Plant response rating (scale of 0 to 100), Barley ([8]; 16 g ai/ha): 25
- Plant response rating (scale of 0 to 100), Barley ([8]; 31 g ai/ha): 25
- Barley plant response rating [8, 16]: 35
- Plant response rating, Barley ([8]; 125 g ai/ha, scale 0 to 100): 45
- Plant response rating (scale of 0 to 100), Canarygrass ([9]; 16 g ai/ha): 45
- Plant response rating (scale of 0 to 100), Canarygrass ([9]; 31 g ai/ha): 60
- Canarygrass plant response rating [9, 16]: 60
- Plant response rating, Canarygrass ([9]; 125 g ai/ha, scale 0 to 100): 65
- Plant response rating (scale of 0 to 100), Windgrass ([10]; 16 g ai/ha): 40
- Plant response rating (scale of 0 to 100), Windgrass ([10]; 31 g ai/ha): 40
- Windgrass plant response rating ([10]; 62 g ai/ha): 60
- Windgrass plant response rating ([10]; 125 g ai/ha): 60
- Plant response rating (scale of 0 to 100), Bromegrass, Downy ([11]; 16 g ai/ha): 0
- Plant response rating (scale of 0 to 100), Bromegrass, Downy ([11]; 31 g ai/ha): 0
- Bromegrass, Downy plant response rating [11, 16]: 50
- Plant response rating, Bromegrass, Downy ([11]; 125 g ai/ha, scale 0 to 100): 60
- Plant response rating (scale of 0 to 100), Foxtail, Green ([12]; 16 g ai/ha): 30
- Plant response rating (scale of 0 to 100), Foxtail, Green ([12]; 31 g ai/ha): 35
- Foxtail, Green plant response rating ([12]; 62 g ai/ha): 45
- Foxtail, Green plant response rating ([12]; 125 g ai/ha): 60
- Plant response rating (scale of 0 to 100), Wheat ([13]; 16 g ai/ha): 10
- Plant response rating (scale of 0 to 100), Wheat ([13]; 31 g ai/ha): 30
- Wheat plant response rating ([13]; 62 g ai/ha): 40
- Wheat plant response rating ([13]; 125 g ai/ha): 45
- Plant response rating (scale of 0 to 100), Blackgrass ([14]; 16 g ai/ha): 55
- Plant response rating (scale of 0 to 100), Blackgrass ([14]; 31 g ai/ha): 60
- Blackgrass plant response rating [14, 16]: 65
- Plant response rating, Blackgrass ([14]; 125 g ai/ha, scale 0 to 100): 65
- Plant response rating (scale of 0 to 100), Oat, Wild ([15]; 16 g ai/ha): 40
- Plant response rating (scale of 0 to 100), Oat, Wild ([15]; 31 g ai/ha): 40
- Oat, Wild plant response rating ([15]; 62 g ai/ha): 60
- Oat, Wild plant response rating ([15]; 125 g ai/ha): 65

Compound: COC(=O)c1nc(-c2ccc(Cl)cc2)nc(N)c1Cl [Compound 58, methyl 6-amino-5-chloro-2-(4-chlorophenyl)-4-pyrimidinecarboxylate]
- Redstem plant response rating ([1]; 32 g ai/ha): 80
- Redstem plant response rating ([1]; 64 g ai/ha): 85
- Redstem plant response rating ([1]; 125 g ai/ha): 95
- Redstem plant response rating ([1]; 250 g ai/ha): 95
- Plant response rating, Redstem [1]: 60
- Flatsedge, Rice plant response rating ([2]; 32 g ai/ha): 100
- Flatsedge, Rice plant response rating ([2]; 64 g ai/ha): 100
- Flatsedge, Rice plant response rating ([2]; 125 g ai/ha): 100
- Flatsedge, Rice plant response rating ([2]; 250 g ai/ha): 100
- Plant response rating, Flatsedge, Rice [2]: 40
- melting point: 215 to 218 °C

Compound: COC(=O)c1nc(C2CC2)nc(N)c1I [Compound 7]
- melting point: 145 to 146 °C

Compound: COC(=O)c1nc(-c2ccc(Br)cc2)nc(N)c1Cl [Compound 96, methyl 6-amino-2-(4-bromophenyl)-5-chloro-4-pyrimidinecarboxylate]
- Redstem plant response rating ([1]; 32 g ai/ha): 85
- Redstem plant response rating ([1]; 64 g ai/ha): 90
- Redstem plant response rating ([1]; 125 g ai/ha): 100
- Redstem plant response rating ([1]; 250 g ai/ha): 100
- Plant response rating, Redstem [1]: 0
- Flatsedge, Rice plant response rating ([2]; 32 g ai/ha): 100
- Flatsedge, Rice plant response rating ([2]; 64 g ai/ha): 100
- Flatsedge, Rice plant response rating ([2]; 125 g ai/ha): 100
- Flatsedge, Rice plant response rating ([2]; 250 g ai/ha): 100
- Plant response rating, Flatsedge, Rice [2]: 100
- melting point: 223 to 224 °C
